Measurements as given in patent US8765684B2, “Solid materials of {[(2S,5R,8S,11S)-5-benzyl-11-(3-guanidino-propyl)-8-isopropyl-7-methyl-3,6,9,12,15-pentaoxo-1,4,7,10,13-pentaaza-cyclopentadec-2-yl]-acetic acid} and methods for obtaining them” (Merck Patent GmbH, priority 2009, dated 2014).

Legend:
[1] = assay type: physicochemical; details: 25° C., listed as S2
Text: Preferably, the anhydrates or ansolvates according to the invention and especially the crystalline form A1 can be characterised, alternatively or additionally, by dynamic vapour sorption experiments. The results can be obtained by standard techniques as described in Rolf Hilfiker, ‘Polymorphism in the Pharmaceutical Industry’, Wiley-VCH. Weinheim 2006 (Chapter 9: Water Vapour Sorption, and references therein). […] Eur. criteria.
Preferably, the tetrasolvates according to the invention, more preferably the tetrahydrates according to the invention and especially the crystalline form S3 can be characterised, alternatively or additionally, by dynamic vapour sorption experiments. The results can be obtained by standard techniques as described in Rolf Hilfiker, ‘Polymorphism in the Pharmaceutical Industry’, Wiley-VCH. Weinheim 2006 (Chapter 9: Water Vapour Sorption, and references therein).
Dynamic Vapor Sorption measurements are preferably obtained on a SMS DVS Intrinsic system. The results are preferably obtained by standard techniques as described by Rolf Hilfiker “Polymorphism in the Pharmaceutical Industry” Wiley-VCH Weinheim 2006 (Chapter 9: Water Vapour Sorption, and references therein.) Approx. 2-10 mg of samples are preferably weighed into an Aluminium 100 μL pan and placed in the sample incubator of the DVS instrument with microbalance. A nitrogen overall flow rate of 200 mL/min (combined dry and humid stream) is preferably used for humidification. Water vapor sorption isotherms are preferably acquired at 25° C. in the range 0% relative humidity to 98% relative humidity mostly with 10% relative humidity steps. For all relative humidity steps, an equilibrium condition of dm/dt≦0.0005 wt %/min are preferably used, with a minimum relative humidity step time of 10 minutes and a maximum relative humidity step time of 360 minutes which is preferably used as a timeout if the dm/dt criterai mentioned above is not been reached.
A SMS DVS I system is used for the dynamic vapour experiments regarding crystalline form S3. The results have been obtained by standard techniques as described in Rolf Hilfiker, ‘Polymorphism in the Pharmaceutical Industry’, Wiley-VCH. Weinheim 2006 (Chapter 9: Water Vapour Sorption, and references therein). […] During the water adsorption cycle there is shown an assembly of water molecules (ca. 10 wt%) in the lattice at elevated rh. In the second desorption cycle there is a loss of this amount of water.
(§1) A SMS DVS Intrinsic is used for the dynamic vapour experiments. The results are obtained by standard techniques as described in Rolf Hilfiker, ‘Polymorphism in the Pharmaceutical Industry’, Wiley-VCH. Weinheim 2006 (Chapter 9: Water Vapour Sorption, and references therein). […] Upon water vapour adsorption, an assembly of water molecules in the lattice is observed, with a maximum weight gain of approx. 8 wt % at elevated rh. In the second desorption cycle a total mass loss of approx. 9.9 wt % is observed. For a Cilengitide Dihydrate Di-Methanolate, the calculated Methanol content equals 9.3 wt %.
as §1, with “6.4” for “8”, “9.2” for “9.9”, “Di-Ethanolate,” for “Di-Methanolate,”, “Ethanol” for “Methanol”, “12.5” for “9.3”

[2] = assay type: physicochemical
Procedure: In the respective dynamic vapor sorption experiments discussed in more detail herein using ethanol vapor at 98% relative saturation for the Dihydrate-diethanolate/crystalline form S2 at 25° C. starting with the tetrahydrate a mass gain of 17% has been obtained. This is in good agreement with the above shown results for the tetraethanolate (calculated 117.0%, i.e. 17.0% of mass gain). Preferably, the tetrasolvates according to the invention, more preferably the Dihydrate-diethanolate, the Dihydrate-ethanolate, the Dihydrate-monoethanolate, the Diethanolate and/or the desolvates thereof, and especially the crystalline form S2 can be characterised, alternatively or additionally, by dynamic vapour experiments using water vapour and/or methanol vapour. The results can be obtained by standard techniques as described in Rolf Hilfiker, ‘Polymorphism in the Pharmaceutical Industry’, Wiley-VCH. Weinheim 2006 (Chapter 9: Water Vapour Sorption, and references therein). […] Upon water vapour adsorption, an assembly of water molecules in the lattice is observed, with a maximum weight gain of approx. 6.4 wt % at elevated rh. In the second desorption cycle a total mass loss of approx. 9.2 wt % is observed. For a Dihydrate Di-Ethanolate of the compound of formula I, the calculated Ethanol content equals 12.5 wt %. […] Thus, crystalline form S2 is a crystalline Ethanol solvate form or a mixed water/ethanol solvate form, preferably selected from the Dihydrate-ethanolate, the Dihydrate-monoethanolate, the Diethanolate and/or the desolvates thereof, which can be obtained e.g. via Ethanol Vapour Sorption, preferably via Ethanol Vapour Sorption starting with a hydrate structure, such as the hydrates according to the invention and especially the tetrahydrate according to the invention, i.e. crystalline form S3. From the Ethanol Vapour Sorption curve as shown in FIG. 21 and as discussed above, it can be seen that at elevated Ethanol partial pressure, approx. 17 wt % Ethanol are taken up by the sample.

Substance: cyclo-(Arg-Gly-Asp-DPhe-NMe-Val) [crystalline form S2]
- Maximum weight gain upon water vapour adsorption ([1]; elevated rh): approx. 6.4 wt %
- Mass loss in the first desorption cycle ([1]; water vapour sorption): approx. 6.5 wt %
- Total mass loss in the second desorption cycle ([1]; water vapour sorption): approx. 9.2 wt %
- Thermodynamic stability of the form [2]: thermodynamically stable form
- Ethanol taken up by the sample ([2]; elevated Ethanol partial pressure, starting with a hydrate structure): approx. 17 wt %
- Mass gain ([2]; ethanol vapor at 98% relative saturation, 25° C., starting with the tetrahydrate): 17%
